From the supplement of paper PMC10307832

What was measured:
Assay in all cases: relative viability (nuclei count vs DMSO), 5 days (fraction); higher = more cells survive
Idelalisib + Dasatinib = compound: CC[C@H](Nc1ncnc2[nH]cnc12)c1nc2cccc(F)c2c(=O)n1-c1ccccc1 [Idelalisib] + Cc1nc(Nc2ncc(C(=O)Nc3c(C)cccc3Cl)s2)cc(N2CCN(CCO)CC2)n1 [Dasatinib] (partner 0.075 µM)
Procedure, shortened: (§1)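 Lung cancer cell lines were pin-tool dosed in 1536-well plates on the day after seeding, with either a lone drug or a fixed anchor-drug dose plus five library-drug doses (not always all listed) in √10 steps. Nuclei were counted on 4× images after 5 days. Relative viability is the ratio of treated-well to vehicle-well nuclei counts, with each value a median of duplicate plates.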

Idelalisib + Decitabine = compound: CC[C@H](Nc1ncnc2[nH]cnc12)c1nc2cccc(F)c2c(=O)n1-c1ccccc1 [Idelalisib] + Nc1ncn([C@H]2C[C@H](O)[C@@H](CO)O2)c(=O)n1 [Decitabine] (partner 2 µM)
Procedure, shortened: as §1

Pemetrexed + Trametinib = compound: Nc1nc2[nH]cc(CCc3ccc(C(=O)N[C@@H](CCC(=O)O)C(=O)O)cc3)c2c(=O)[nH]1 [Pemetrexed] + CC(=O)Nc1cccc(-n2c(=O)n(C3CC3)c(=O)c3c(Nc4ccc(I)cc4F)n(C)c(=O)c(C)c32)c1 [Trametinib] (partner 0.02 µM)
Procedure, shortened: as §1

Pemetrexed + Tozasertib = compound: Nc1nc2[nH]cc(CCc3ccc(C(=O)N[C@@H](CCC(=O)O)C(=O)O)cc3)c2c(=O)[nH]1 [Pemetrexed] + Cc1cc(Nc2cc(N3CCN(C)CC3)nc(Sc3ccc(NC(=O)C4CC4)cc3)n2)n[nH]1 [Tozasertib] (partner 0.1 µM)
Procedure, shortened: as §1

Cell Line | relative viability (Idelalisib + Dasatinib; first compound 0.04 µM) | relative viability (Idelalisib + Dasatinib; first compound 0.1265 µM) | relative viability (Idelalisib + Dasatinib; first compound 0.4 µM) | relative viability (Idelalisib + Dasatinib; first compound 1.265 µM) | relative viability (Idelalisib + Dasatinib; first compound 4 µM) | relative viability (Idelalisib + Decitabine; first compound 0.04 µM) | relative viability (Idelalisib + Decitabine; first compound 0.1265 µM) | relative viability (Idelalisib + Decitabine; first compound 0.4 µM) | relative viability (Idelalisib + Decitabine; first compound 1.265 µM) | relative viability (Idelalisib + Decitabine; first compound 4 µM) | relative viability (Pemetrexed + Trametinib; first compound 0.002 µM) | relative viability (Pemetrexed + Trametinib; first compound 0.006325 µM) | relative viability (Pemetrexed + Trametinib; first compound 0.02 µM) | relative viability (Pemetrexed + Trametinib; first compound 0.06325 µM) | relative viability (Pemetrexed + Trametinib; first compound 0.2 µM) | relative viability (Pemetrexed + Tozasertib; first compound 0.002 µM) | relative viability (Pemetrexed + Tozasertib; first compound 0.006325 µM) | relative viability (Pemetrexed + Tozasertib; first compound 0.02 µM) | relative viability (Pemetrexed + Tozasertib; first compound 0.06325 µM) | relative viability (Pemetrexed + Tozasertib; first compound 0.2 µM)
HOP-62 | 0.636 | 0.714 | 0.547 | 0.581 | 0.526 | 0.277 | 0.199 | 0.262 | 0.231 | 0.235 | 0.431 | 0.389 | 0.386 | 0.399 | 0.327 | 0.334 | 0.306 | 0.409 | 0.368 | 0.349
LC-2-ad | 0.583 | 0.48 | 0.424 | 0.626 | 0.519 | 0.789 | 0.797 | 0.811 | 0.825 | 0.711 | 0.915 | 0.856 | 0.87 | 0.82 | 0.306 | 0.378 | 0.45 | 0.43 | 0.296 | 0.259
SW 900 | 0.497 | 0.543 | 0.417 | 0.543 | 0.326 | 0.387 | 0.415 | 0.505 | 0.498 | 0.377 | 0.841 | 0.793 | 0.928 | 0.67 | 0.549 | 0.5 | 0.535 | 0.678 | 0.495 | 0.466
NCI-H322M | 0.284 | 0.246 | 0.248 | 0.251 | 0.263 | 0.712 | 0.69 | 0.613 | 0.664 | 0.746 | 0.511 | 0.478 | 0.503 | 0.456 | 0.551 | 0.513 | 0.505 | 0.486 | 0.504 | 0.452
SK-LU-1 | 0.165 | 0.163 | 0.153 | 0.153 | 0.186 | 0.645 | 0.605 | 0.581 | 0.706 | 0.618 | 0.412 | 0.478 | 0.61 | 0.402 | 0.424 | 0.303 | 0.324 | 0.374 | 0.378 | 0.333
NCI-H1734 | 0.468 | 0.487 | 0.338 | 0.454 | 0.374 | 0.522 | 0.461 | 0.497 | 0.518 | 0.496 | 0.603 | 0.623 | 0.679 | 0.627 | 0.524 | 0.249 | 0.221 | 0.268 | 0.284 | 0.248
HCC-44 | – | – | – | – | – | 1.07 | 0.927 | 0.978 | 0.98 | 0.91 | 0.946 | 1.05 | 1.14 | 1.09 | 1.04 | 0.903 | 0.945 | 1.15 | 0.853 | 0.372
NCI-H2170 | 0.661 | 0.473 | 0.536 | 0.383 | 0.554 | 0.507 | 0.471 | 0.505 | 0.438 | 0.417 | 0.916 | 0.915 | 0.923 | 0.955 | 0.912 | 0.714 | 0.644 | 0.636 | 0.829 | 0.602
